In PubChem BioAssay AID1845206 (Molecular Pharmacology Branch, DTP, NCI, 2023):
Where “and” joins values, the source holds several entries; their conditions need not be identical. Equal values may be shown once.

Test system: NCI-H1618 multicellular tumor spheroid viability
Assay: Anticancer human tumor NCI-H1618 cell line growth inhibition;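 also: spheroids exposed to agents for 7 days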
Details: for viability, T/C: stronger effect = lower value
Procedure, shortened: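 Complex tumor spheroids combined malignant cells with endothelial cells and mesenchymal stem cells. DNA-damaging drugs and DNA repair inhibitors were tested alone and in combination, at half-log dilutions down from clinical Cmax (top 10 microM if Cmax unknown), 0.25% DMSO final.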

CNCc1ccc(-c2cc(-c3nc(-c4ccc(S(=O)(=O)C(C)C)cc4)cnc3N)on2)cc1
viability, T/C (compound 0.00949 µM): 97.2% and 99.1% and 104% | viability, T/C (compound 0.03 µM): 96.2% and 99.4% and 112% | viability, T/C (compound 0.0949 µM): 25.7% and 95.3% and 102% | viability, T/C (compound 0.3 µM): 25.8% and 85.3% and 90% | viability, T/C (compound 0.949 µM): 18.8% and 21.5% and 11.7% | viability, T/C (compound 3 µM): 20.3% and 0.47% and 4.41% | IC50 (curve of compound): 63.8 nM and 567 nM and 540 nM

Cn1nnc2c(C(N)=O)ncn2c1=O
viability, T/C (compound 3.16 µM): 19.8% [middle of 10 runs] | viability, T/C (compound 10 µM): 5.8% [middle of 10 runs] | viability, T/C (compound 31.6 µM): 10.4% [middle of 10 runs]

COc1cc(C)[nH]c(=O)c1CN1CCc2c(Cl)cc(C(OC)C3COC3)c(Cl)c2C1=O (configuration not stated) + CC[C@@]1(O)C(=O)OCc2c1cc1n(c2=O)Cc2cc3c(CN(C)C)c(O)ccc3nc2-1
IC50 (curve of first compound, second compound 0.003 µM): > 10000 nM | IC50 (curve of first compound, second compound 0.00949 µM): < 31.6 nM | IC50 (curve of first compound, second compound 0.03 µM): < 31.6 nM | IC50 (curve of first compound, second compound 0.0949 µM): < 31.6 nM | IC50 (curve of first compound, second compound 0.3 µM): < 31.6 nM | viability, T/C (second compound 0.003 µM, first compound 0.0316 µM): 54.1% | viability, T/C (second compound 0.003 µM, first compound 0.1 µM): 52.3% | viability, T/C (second compound 0.003 µM, first compound 0.316 µM): 78.8% | viability, T/C (second compound 0.003 µM, first compound 1 µM): 63.3% | viability, T/C (second compound 0.003 µM, first compound 3.16 µM): 83.5% | viability, T/C (second compound 0.003 µM, first compound 10 µM): 53.2% | viability, T/C (second compound 0.00949 µM, first compound 0.0316 µM): 39.5% | viability, T/C (second compound 0.00949 µM, first compound 0.1 µM): 10.9% | viability, T/C (second compound 0.00949 µM, first compound 0.316 µM): 17.2% | viability, T/C (second compound 0.00949 µM, first compound 1 µM): 40.1% | viability, T/C (second compound 0.00949 µM, first compound 3.16 µM): 38.8% | viability, T/C (second compound 0.00949 µM, first compound 10 µM): 29.1% | viability, T/C (second compound 0.03 µM, first compound 0.0316 µM): 6.67% | viability, T/C (second compound 0.03 µM, first compound 0.1 µM): 5.82% | viability, T/C (second compound 0.03 µM, first compound 0.316 µM): 8.79% | viability, T/C (second compound 0.03 µM, first compound 1 µM): 4.86% | viability, T/C (second compound 0.03 µM, first compound 3.16 µM): 5.97% | viability, T/C (second compound 0.03 µM, first compound 10 µM): 7.23% | viability, T/C (second compound 0.0949 µM, first compound 0.0316 µM): 6.1% | viability, T/C (second compound 0.0949 µM, first compound 0.1 µM): 2.42% | viability, T/C (second compound 0.0949 µM, first compound 0.316 µM): 2.48% | viability, T/C (second compound 0.0949 µM, first compound 1 µM): 6.01% | viability, T/C (second compound 0.0949 µM, first compound 3.16 µM): 4.18% | viability, T/C (second compound 0.0949 µM, first compound 10 µM): 6.78% | viability, T/C (second compound 0.3 µM, first compound 0.0316 µM): 2.05% | viability, T/C (second compound 0.3 µM, first compound 0.1 µM): 2.31% | viability, T/C (second compound 0.3 µM, first compound 0.316 µM): 2% | viability, T/C (second compound 0.3 µM, first compound 1 µM): 1.4% | viability, T/C (second compound 0.3 µM, first compound 3.16 µM): 3.18% | viability, T/C (second compound 0.3 µM, first compound 10 µM): 2.92%

CC1COCCN1c1cc(-c2ccnn2C)c2ccnc(-c3ccn[nH]3)c2n1 (configuration not stated)
viability, T/C (compound 0.0316 µM): 66.6% and 84.9% and 71.4% | viability, T/C (compound 0.1 µM): 36.7% and 35.1% and 32.9% | viability, T/C (compound 0.316 µM): 5.46% and 8.95% and 25.5% | viability, T/C (compound 1 µM): 1.99% and 2.55% and 7.57% | viability, T/C (compound 3.16 µM): 1.12% and 1.22% and 2.57% | viability, T/C (compound 10 µM): 2.74% and 1.68% and 1.22% | IC50 (curve of compound): 60 nM and 70.9 nM and 64.3 nM
